{"source": "paper PMC11520585", "about": "(BMC Neuroscience, 2024)", "key": {"C. elegans [1]": {"tested_on": "C. elegans", "type": "in vivo", "settings": "ZA-II-05 1 mg/ml treated groups, 24 h"}, "[2]": {"tested_on": "maximal electroshock seizures", "settings": "100 and 300 mg/kg (i.p.); cited from earlier work"}, "[3]": {"tested_on": "organotypic hippocampal slice cultures", "assay": "organotypic hippocampal slice culture neuroprotection assay", "type": "cell-based, rat", "settings": "ZA-II-05 100 µM, NMDA 10 µM insult, P < 0.05"}, "µ-opioid receptors (MOR)": {"target": "µ-opioid receptors (MOR)", "settings": "read-out: Ki, µ-opioid receptors (MOR); competitive radioligand binding; cited from earlier work"}, "[4]": {"target": "GluN1/GluN2B subtype receptors", "settings": "read-out: mean IC50, GluN1/GluN2B; cited from earlier work"}, "[5]": {"tested_on": "vanadium-induced neurotoxicity", "settings": "vanadium-exposed mice; cited from earlier work"}, "Sigma2 receptor": {"target": "Sigma2 receptor", "settings": "read-out: Ki, Sigma2 receptor; competitive radioligand binding; cited from earlier work"}, "Opioid receptors (KOR)": {"target": "Opioid receptors (KOR)", "settings": "read-out: Ki, Opioid receptors (KOR); competitive radioligand binding; cited from earlier work"}, "C. elegans [6]": {"tested_on": "C. elegans", "type": "in vivo", "settings": "ZA-II-05 1 mg/ml treated groups, 24 h", "remark": "listed apart in the source"}, "[7]": {"target": "GluN1/GluN2A subtype receptors", "settings": "read-out: mean IC50, GluN1/GluN2A; cited from earlier work"}, "C. elegans [8]": {"tested_on": "C. elegans", "settings": "in vivo"}, "C. elegans [9]": {"tested_on": "C. elegans", "settings": "in vivo", "remark": "listed apart in the source"}}}
{"compound": "Fc1ccc(C2(NCCCOC3CCCCO3)CC3CCC2C3)cc1", "note": "(stereo not drawn) [ZA-II-05, 2-[4-Fluorophenyl]-N-(3-[tetrahydro-2H-pyran-2-yloxy]propyl) bicyclo [2.2.1] heptan-2-amine]", "values": [{"measurement": "nuclei in ventral nerve cord (DAPI)", "setting": "C. elegans [1]", "result": "preserved the nucleus"}, {"measurement": "activity in maximal electroshock seizure (MES) assessment", "setting": "[2]", "result": "activity"}, {"measurement": "neuroprotection (propidium iodide fluorescence intensity vs NMDA group)", "setting": "[3]", "result": "significant neuroprotective effect"}, {"measurement": "Ki", "setting": "µ-opioid receptors (MOR)", "result": 3.04, "unit": "µM"}, {"measurement": "IC50", "setting": "[4]", "result": 0.43, "unit": "µM"}, {"measurement": "protection against neuronal damage", "setting": "[5]", "result": "considerable protection against neuronal damage"}, {"measurement": "Ki", "setting": "Sigma2 receptor", "result": 0.0055, "unit": "µM"}, {"measurement": "Ki", "setting": "Opioid receptors (KOR)", "result": 0.361, "unit": "µM"}, {"measurement": "mitochondrial density (fluorescence intensity)", "setting": "C. elegans [6]", "result": "dense presence of mitochondria"}, {"measurement": "IC50", "setting": "[7]", "result": 0.518, "unit": "µM"}, {"measurement": "growth pattern (body length, body wall)", "setting": "C. elegans [8]", "result": "reversed this effect"}, {"measurement": "mitochondrial superoxide (MitoSOX fluorescence), effect on vanadium-induced ROS", "setting": "C. elegans [9]", "result": "alleviated"}]}
